From ChEMBL document CHEMBL1201862, “PubChem BioAssay data set” (2004)
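These data come from cells grown in 96-well plates and exposed to compound for 48 hours at five concentrations. GI50 is the concentration that inhibits growth by half.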 Active and inactive are the calls of the source. No stated cut-off is given here; in the data, active = GI50 up to about 1.1 µM and inactive = higher.

Legend:
Assay in all cases: growth of human tumour cells (NCI), 48 h
RXF 393 = system: RXF 393
T47D = system: T47D
SR = system: SR
U-251 = system: U-251
A498 = system: A498
UACC-62 = system: UACC-62
NCI/ADR-RES = system: NCI/ADR-RES
Malme-3M = system: Malme-3M
SK-OV-3 = system: SK-OV-3
UACC-257 = system: UACC-257
SK-MEL-2 = system: SK-MEL-2
PC-3 = system: PC-3
EKVX = system: EKVX
OVCAR-3 = system: OVCAR-3
HCT-116 = system: HCT-116
786-0 = system: 786-0
SNB-75 = system: SNB-75
HT-29 = system: HT-29
IGROV-1 = system: IGROV-1
MOLT-4 = system: MOLT-4

O=C1CC(=O)n2cnc3cccc(c32)N1
GI50 (RXF 393): > 100 µM (inactive) | GI50 (T47D): > 100 µM (inactive) | GI50 (SR): > 100 µM (inactive) | GI50 (U-251): > 100 µM (inactive) | GI50 (A498): > 100 µM (inactive) | GI50 (UACC-62): > 100 µM (inactive) | GI50 (NCI/ADR-RES): > 100 µM (inactive) | GI50 (Malme-3M): > 100 µM (inactive) | GI50 (SK-OV-3): > 100 µM (inactive) | GI50 (UACC-257): > 100 µM (inactive) | GI50 (SK-MEL-2): > 100 µM (inactive) | GI50 (PC-3): > 100 µM (inactive) | GI50 (EKVX): > 100 µM (inactive) | GI50 (OVCAR-3): > 100 µM (inactive) | GI50 (HCT-116): > 100 µM (inactive) | GI50 (786-0): > 100 µM (inactive) | GI50 (SNB-75): > 100 µM (inactive) | GI50 (HT-29): > 100 µM (inactive) | GI50 (IGROV-1): > 100 µM (inactive)

COc1ccc(C2c3cc4c(cc3C(O)C3CCC(=O)N23)OCO4)cc1 (stereo not drawn)
GI50 (T47D): > 100 µM (inactive) | GI50 (MOLT-4): > 100 µM (inactive) | GI50 (SR): > 100 µM (inactive) | GI50 (U-251): > 100 µM (inactive) | GI50 (A498): > 100 µM (inactive) | GI50 (UACC-62): > 100 µM (inactive) | GI50 (NCI/ADR-RES): > 100 µM (inactive) | GI50 (Malme-3M): > 100 µM (inactive) | GI50 (SK-OV-3): > 100 µM (inactive) | GI50 (UACC-257): > 100 µM (inactive) | GI50 (SK-MEL-2): > 100 µM (inactive) | GI50 (PC-3): > 100 µM (inactive) | GI50 (EKVX): > 100 µM (inactive) | GI50 (OVCAR-3): > 100 µM (inactive) | GI50 (HCT-116): > 100 µM (inactive) | GI50 (786-0): > 100 µM (inactive) | GI50 (SNB-75): 82.2 µM (inactive) | GI50 (HT-29): > 100 µM (inactive) | GI50 (IGROV-1): > 100 µM (inactive)

O=C1N[C@@H]2c3c(Br)sc(Br)c3C(=O)[C@@H]2O1
GI50 (RXF 393): 2.2 µM (inactive) | GI50 (T47D): 9.18 µM (inactive) | GI50 (MOLT-4): 1.89 µM (inactive) | GI50 (SR): 1.81 µM (inactive) | GI50 (U-251): 2.39 µM (inactive) | GI50 (A498): 16.7 µM (inactive) | GI50 (UACC-62): 13.2 µM (inactive) | GI50 (NCI/ADR-RES): 3.66 µM (inactive) | GI50 (Malme-3M): 2.59 µM (inactive) | GI50 (SK-OV-3): 18.7 µM (inactive) | GI50 (UACC-257): 3.32 µM (inactive) | GI50 (SK-MEL-2): 16.8 µM (inactive) | GI50 (PC-3): 6.41 µM (inactive) | GI50 (EKVX): 2.13 µM (inactive) | GI50 (OVCAR-3): 1.8 µM (inactive) | GI50 (786-0): 7.11 µM (inactive) | GI50 (SNB-75): 6.14 µM (inactive) | GI50 (HT-29): 1.9 µM (inactive) | GI50 (IGROV-1): 4.84 µM (inactive)

CN(C)c1ccc(C=C2N=C(c3ccccc3)N(c3cc(C(=O)c4ccccc4)ccc3N3C(=O)/C(=C/c4ccc(N(C)C)cc4)N=C3c3ccccc3)C2=O)cc1
GI50 (T47D): 5.65 µM (inactive) | GI50 (MOLT-4): 3.38 µM (inactive) | GI50 (SR): 3.3 µM (inactive) | GI50 (U-251): 3.67 µM (inactive) | GI50 (A498): 3.48 µM (inactive) | GI50 (UACC-62): 4.24 µM (inactive) | GI50 (NCI/ADR-RES): 4.06 µM (inactive) | GI50 (SK-OV-3): 4.75 µM (inactive) | GI50 (UACC-257): 6.43 µM (inactive) | GI50 (SK-MEL-2): 3.29 µM (inactive) | GI50 (PC-3): 3.51 µM (inactive) | GI50 (EKVX): 20.5 µM (inactive) | GI50 (OVCAR-3): 2.12 µM (inactive) | GI50 (HCT-116): 3.76 µM (inactive) | GI50 (786-0): 6.17 µM (inactive) | GI50 (SNB-75): 4.78 µM (inactive) | GI50 (HT-29): 4.28 µM (inactive) | GI50 (IGROV-1): 5.86 µM (inactive)

C=CCOc1ccc(C2C(C(=O)OCC)C(=O)CC(C)(O)C2C(=O)OCC)cc1OC (stereo not drawn)
GI50 (RXF 393): > 100 µM (inactive) | GI50 (T47D): > 100 µM (inactive) | GI50 (MOLT-4): > 100 µM (inactive) | GI50 (SR): > 100 µM (inactive) | GI50 (U-251): > 100 µM (inactive) | GI50 (A498): > 100 µM (inactive) | GI50 (UACC-62): > 100 µM (inactive) | GI50 (NCI/ADR-RES): > 100 µM (inactive) | GI50 (Malme-3M): > 100 µM (inactive) | GI50 (UACC-257): > 100 µM (inactive) | GI50 (SK-MEL-2): > 100 µM (inactive) | GI50 (PC-3): > 100 µM (inactive) | GI50 (EKVX): > 100 µM (inactive) | GI50 (OVCAR-3): > 100 µM (inactive) | GI50 (HCT-116): > 100 µM (inactive) | GI50 (786-0): > 100 µM (inactive) | GI50 (SNB-75): > 100 µM (inactive) | GI50 (HT-29): > 100 µM (inactive) | GI50 (IGROV-1): > 100 µM (inactive)

COc1cc2c[n+](C)c3c4cc(OC)c(OC)cc4c(OCc4ccccc4)cc3c2cc1OC
GI50 (RXF 393): 1.6 µM (inactive) | GI50 (T47D): 0.0986 µM (active) | GI50 (MOLT-4): 0.592 µM (active) | GI50 (SR): 0.14 µM (active) | GI50 (U-251): 0.0273 µM (active) | GI50 (A498): 27.3 µM (inactive) | GI50 (UACC-62): 0.434 µM (active) | GI50 (NCI/ADR-RES): > 100 µM (inactive) | GI50 (Malme-3M): 1.29 µM (inactive) | GI50 (SK-OV-3): 11.7 µM (inactive) | GI50 (UACC-257): 0.706 µM (active) | GI50 (SK-MEL-2): 1.63 µM (inactive) | GI50 (PC-3): 0.877 µM (active) | GI50 (EKVX): > 100 µM (inactive) | GI50 (OVCAR-3): 0.877 µM (active) | GI50 (HCT-116): 1.02 µM (active) | GI50 (786-0): 0.634 µM (active) | GI50 (SNB-75): 0.199 µM (active) | GI50 (HT-29): 2.28 µM (inactive)

CCN(CC)CCNc1ccc2nnn3c4ccc([N+](=O)[O-])cc4c(=O)c1c23
GI50 (RXF 393): 4.78 µM (inactive) | GI50 (T47D): > 100 µM (inactive) | GI50 (MOLT-4): 2.13 µM (inactive) | GI50 (SR): 5.01 µM (inactive) | GI50 (U-251): 5.21 µM (inactive) | GI50 (A498): 6.3 µM (inactive) | GI50 (UACC-62): > 36.4 µM (inactive) | GI50 (NCI/ADR-RES): 7.16 µM (inactive) | GI50 (Malme-3M): 9.12 µM (inactive) | GI50 (SK-OV-3): > 37.6 µM (inactive) | GI50 (UACC-257): 10 µM (inactive) | GI50 (SK-MEL-2): 9.75 µM (inactive) | GI50 (PC-3): 5.26 µM (inactive) | GI50 (EKVX): 14.1 µM (inactive) | GI50 (OVCAR-3): > 79.6 µM (inactive) | GI50 (HCT-116): 3.55 µM (inactive) | GI50 (786-0): 4.34 µM (inactive) | GI50 (SNB-75): 4.91 µM (inactive) | GI50 (HT-29): 3.89 µM (inactive) | GI50 (IGROV-1): 5.38 µM (inactive)
